Results taken from patent publication US20240083857A1, “2-Methyl-Quinazolines” (Bayer Pharma Aktiengesellschaft, priority 2017, published 2024).
pIC50: −log10 of the molar value.

Key:
[1] = target: human SOS1 (nucleotide exchange of K-Ras^G12C) (Homo sapiens, UniProt Q07889); assay: Biochemical assay 2: K-Ras^G12C activation assay by hSOS1 at high GTP concentration (HTRF); details: high GTP; for pIC50: read-out: Assay 2 (KRAS-Activation by SOS high GTP) activity expressed as IC50; for inhibition at 20 µM: read-out: Assay 2 (KRAS-Activation by SOS high GTP) activity expressed as % inhibition at 20 μM
[2] = target: K-Ras^G12C : hSOS1 interaction (Homo sapiens, UniProt Q07889); assay: Biochemical assay 1: K-Ras^G12C interaction assay with hSOS1 (HTRF); type: binding; details: for pIC50: read-out: Assay 1 (KRAS-SOS Interaction) activity expressed as IC50; for inhibition at 20 µM: read-out: Assay 1 (KRAS-SOS Interaction) activity expressed as % inhibition at 20 μM
[3] = target: human SOS1 (loading of human K-Ras^G12C-GDP with fluorescent GTP-analog) (Homo sapiens, UniProt Q07889); assay: Biochemical assay 3: K-Ras^G12C activation assay by hSOS1 (HTRF); details: no GTP; for pIC50: read-out: Assay 3 (KRAS-Activation by SOS no GTP) activity expressed as IC50; for inhibition at 20 µM: read-out: Assay 3 (KRAS-Activation by SOS no GTP) activity expressed as % inhibition at 20 μM

## CCC/C=C/c1ccc([C@H](C)Nc2nc(C)nc3cc(OC)c(OC)cc23)s1 (racemic) [Example 156, 6,7-dimethoxy-2-methyl-N-[1-{5-[(1E)-pent-1-en-1-yl]thiophen-2-yl}ethyl]quinazolin-4-amine]
[1]
  pIC50: 5.24
[2]
  pIC50: 5.39
[3]
  pIC50: 4.97

## COc1cc2nc(C)nc(N[C@@H](C)c3ccc(/C=C/C4CCCCC4)s3)c2cc1OC (racemic) [Example 157, N-[1-{5-[(E)-2-cyclohexylethenyl]thiophen-2-yl}ethyl]-6,7-dimethoxy-2-methylquinazolin-4-amine]
[1]
  inhibition at 20 µM: 19%
[2]
  inhibition at 20 µM: 44%
[3]
  inhibition at 20 µM: 12%

## COc1cc2nc(C)nc(N[C@@H](C)c3ccc(-c4cccc(/C=C/C#N)c4)s3)c2cc1OC (racemic) [Example 160, (2E)-3-[3-(5-{1-[(6,7-dimethoxy-2-methylquinazolin-4-yl)amino]ethyl}thiophen-2-yl)phenyl]prop-2-enenitrile]
[1]
  inhibition at 20 µM: 33%
[2]
  pIC50: 4.79
[3]
  inhibition at 20 µM: 13%

## COc1cc2nc(C)nc(N[C@@H](C)c3ccc(-c4ccc(C)cc4C)s3)c2cc1OC (racemic) [Example 161, N-{1-[5-(2,4-dimethylphenyl)thiophen-2-yl]ethyl}-6,7-dimethoxy-2-methylquinazolin-4-amine]
[1]
  pIC50: 5.40
[2]
  pIC50: 5.38
[3]
  pIC50: 5.15

## COc1cc2nc(C)nc(N[C@@H](C)c3ccc(-c4ccc(C(C)=O)s4)s3)c2cc1OC (racemic) [Example 162, 1-(5′-{1-[(6,7-dimethoxy-2-methylquinazolin-4-yl)amino]ethyl}-2,2′-bithiophen-5-yl)ethanone]
[1]
  pIC50: 4.94
[2]
  pIC50: 5.06
[3]
  pIC50: 4.80

## COc1cc2nc(C)nc(N[C@@H](C)c3ccc(-c4ccccc4NC(C)=O)s3)c2cc1OC (racemic) [Example 166, N-[2-(5-{1-[(6,7-dimethoxy-2-methylquinazolin-4-yl)amino]ethyl}thiophen-2-yl)phenyl]acetamide]
[1]
  pIC50: 5.43
[2]
  pIC50: 5.74
[3]
  pIC50: 5.30

## COc1cc2nc(C)nc(N[C@@H](C)c3ccc(-c4ccccc4S(=O)(=O)N(C)C)s3)c2cc1OC (racemic) [Example 169, 2-(5-{1-[(6,7-dimethoxy-2-methylquinazolin-4-yl)amino]ethyl}thiophen-2-yl)-N,N-dimethylbenzenesulfonamide]
[1]
  pIC50: 5.43
[2]
  pIC50: 5.67
[3]
  pIC50: 5.34

## COc1cc2nc(C)nc(N[C@@H](C)c3ccc(-c4cccc5[nH]ccc45)s3)c2cc1OC (racemic) [Example 171, N-{1-[5-(1H-indol-4-yl)thiophen-2-yl]ethyl}-6,7-dimethoxy-2-methylquinazolin-4-amine]
[1]
  pIC50: 5.47
[2]
  pIC50: 5.25
[3]
  pIC50: 5.14

## COc1ncc(-c2ccc([C@H](C)Nc3nc(C)nc4cc(OC)c(OC)cc34)s2)cn1 (racemic) [Example 172, 6,7-dimethoxy-N-{1-[5-(2-methoxypyrimidin-5-yl)thiophen-2-yl]ethyl}-2-methylquinazolin-4-amine]
[1]
  pIC50: 5.13
[2]
  pIC50: 5.39
[3]
  pIC50: 5.04

## COc1cc2nc(C)nc(N[C@@H](C)c3ccc(-c4ccc5c(c4)CCO5)s3)c2cc1OC (racemic) [Example 174, N-{1-[5-(2,3-dihydro-1-benzofuran-5-yl)thiophen-2-yl]ethyl}-6,7-dimethoxy-2-methylquinazolin-4-amine]
[1]
  pIC50: 5.03
[2]
  pIC50: 5.16
[3]
  pIC50: 4.74

## COc1cc2nc(C)nc(N[C@@H](C)c3ccc(/C=C/c4ccccc4)s3)c2cc1OC (racemic) [Example 175, 6,7-dimethoxy-2-methyl-N-[1-{5-[(E)-2-phenylethenyl]thiophen-2-yl}ethyl]quinazolin-4-amine]
[1]
  inhibition at 20 µM: 50%
[2]
  pIC50: 4.75
[3]
  inhibition at 20 µM: 44%

## C/C=C/c1ccc([C@H](C)Nc2nc(C)nc3cc(OC)c(OC)cc23)s1 (racemic) [Example 177, 6,7-dimethoxy-2-methyl-N-[1-{5-[(1E)-prop-1-en-1-yl]thiophen-2-yl}ethyl]quinazolin-4-amine]
[1]
  pIC50: 5.17
[2]
  pIC50: 5.24
[3]
  inhibition at 20 µM: 49%

## COc1cc2nc(C)nc(NC(C)c3ccc(-c4ccccc4)o3)c2cc1OC (single isomer, unassigned) [Example 224, 6,7-dimethoxy-2-methyl-N-[1-(5-phenylfuran-2-yl)ethyl]quinazolin-4-amine, enantiomer]
[1]
  pIC50: 5.59
[2]
  pIC50: 5.44
[3]
  pIC50: 5.03

## COc1cc2nc(C)nc(N[C@H](C)c3cc4cccc(OC)c4o3)c2cc1OC (stereo in doubt) [Example 33, 6,7-dimethoxy-N-[1-(7-methoxy-1-benzofuran-2-yl)ethyl]-2-methylquinazolin-4-amine]
[1]
  inhibition at 20 µM: 24%
[2]
  inhibition at 20 µM: 53%
[3]
  inhibition at 20 µM: 9%

## COc1cc2nc(C)nc(N[C@@H](C)c3ccc(-c4ccc(N5CCOCC5)cc4)s3)c2cc1OC (stereo in doubt) [Example 43, 6,7-dimethoxy-2-methyl-N-[1-{5-[4-(morpholin-4-yl)phenyl]thiophen-2-yl}ethyl]quinazolin-4-amine]
[1]
  inhibition at 20 µM: 14%
[2]
  inhibition at 20 µM: 30%
[3]
  inhibition at 20 µM: 16%

## COc1cc2nc(C)nc(N[C@@H](C)c3ccc(-c4cccc(N5CCOCC5)c4)s3)c2cc1OC (stereo in doubt) [Example 44, 6,7-dimethoxy-2-methyl-N-[1-{5-[3-(morpholin-4-yl)phenyl]thiophen-2-yl}ethyl]quinazolin-4-amine]
[1]
  inhibition at 20 µM: 47%
[2]
  inhibition at 20 µM: 55%
[3]
  inhibition at 20 µM: 25%

## CCCOc1ccccc1-c1ccc([C@H](C)Nc2nc(C)nc3cc(OC)c(OC)cc23)s1 (stereo in doubt) [Example 47, 6,7-dimethoxy-2-methyl-N-{1-[5-(2-propoxyphenyl)thiophen-2-yl]ethyl}quinazolin-4-amine]
[1]
  inhibition at 20 µM: 22%
[2]
  inhibition at 20 µM: 40%
[3]
  inhibition at 20 µM: 17%

## COc1cc2nc(C)nc(N[C@@H](C)c3ccc(-c4ccccc4)s3)c2cc1OC (stereo in doubt) [Example 70, 6,7-dimethoxy-2-methyl-N-[1-(5-phenylthiophen-2-yl)ethyl]quinazolin-4-amine]
[1]
  pIC50: 5.06
[2]
  pIC50: 5.17
[3]
  inhibition at 20 µM: 47%

## COc1cc2nc(C)nc(N[C@@H](C)c3ccc(-c4cc(Cl)cc(Cl)c4)s3)c2cc1OC (stereo in doubt) [Example 122, N-{1-[5-(3,5-dichlorophenyl)thiophen-2-yl]ethyl}-6,7-dimethoxy-2-methylquinazolin-4-amine]
[1]
  inhibition at 20 µM: 17%
[2]
  inhibition at 20 µM: 46%
[3]
  inhibition at 20 µM: 21%

## COc1cc2nc(C)nc(N[C@@H](C)c3ccc(-c4cccc(-c5nnc(C)o5)c4)s3)c2cc1OC (stereo in doubt) [Example 126, 6,7-dimethoxy-2-methyl-N-[1-{5-[3-(5-methyl-1,3,4-oxadiazol-2-yl)phenyl]thiophen-2-yl}ethyl]quinazolin-4-amine]
[1]
  inhibition at 20 µM: 31%
[2]
  inhibition at 20 µM: 52%
[3]
  inhibition at 20 µM: 11%

## COc1cc(F)cc(-c2ccc([C@H](C)Nc3nc(C)nc4cc(OC)c(OC)cc34)s2)c1 (stereo in doubt) [Example 134, N-{1-[5-(3-fluoro-5-methoxyphenyl)thiophen-2-yl]ethyl}-6,7-dimethoxy-2-methylquinazolin-4-amine]
[1]
  inhibition at 20 µM: 23%
[2]
  inhibition at 20 µM: 43%
[3]
  inhibition at 20 µM: 27%
